Here are results for ten compounds from patent publication US12421205B2, “GLP-1 receptor agonist” (HYUNDAI PHARM CO., LTD., priority 2019, dated 2025).

One data set has as its target T1, hERG (Homo sapiens, UniProt Q12809).
T1 construct: purchased Invitrogen PV5365
Briefly: hERG inhibition test (Predictor hERG Fluorescence Polarization assay kit). Format: binding. To be noted: probe kit Tracer (fluorescent hERG ligand), hERG % inhibition at 10 uM, relative to E-4031 and solvent control. An outline of the steps:
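Competitive fluorescence-polarization binding of fluorescent tracer to hERG membrane preparation, 2.5 h at room temperature, mP read at 531/579 nm. % inhibition at 10 uM test compound, scaled between solvent control (0%) and E-4031 (100%).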

The target in another data set is T2, human GLP-1 receptor (Homo sapiens, UniProt P43220).
T2 construct: host or cells: CHO-K1
T2 sequence (P43220 24-463): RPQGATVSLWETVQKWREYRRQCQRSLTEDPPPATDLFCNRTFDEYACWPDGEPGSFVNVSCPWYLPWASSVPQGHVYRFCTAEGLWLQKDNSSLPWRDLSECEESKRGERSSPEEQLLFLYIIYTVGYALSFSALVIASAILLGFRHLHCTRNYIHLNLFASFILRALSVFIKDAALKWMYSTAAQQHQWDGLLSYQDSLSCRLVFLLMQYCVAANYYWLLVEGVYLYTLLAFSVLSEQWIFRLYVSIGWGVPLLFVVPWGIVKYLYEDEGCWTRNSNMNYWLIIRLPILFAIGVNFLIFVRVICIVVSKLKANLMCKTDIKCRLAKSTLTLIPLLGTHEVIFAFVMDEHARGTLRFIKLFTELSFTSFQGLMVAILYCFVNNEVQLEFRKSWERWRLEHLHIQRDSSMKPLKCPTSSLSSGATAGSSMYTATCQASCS
Briefly: cAMP activity test (cAMP dynamic HTRF kit) in CHO-K1/GLP-1 receptor-expressing cells. Format: cell-based. To be noted: cAMP activity, CHO-K1/GLP-1 receptor-expressing cells; read-out: EC50. An outline of the steps:
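Cells in HBSS with 0.1% BSA, 0.5 mM IBMX and 5 mM HEPES, then lysed; cAMP-d2 and anti-cAMP cryptate added for 3 h. HTRF read-out, where FRET signal is inversely proportional to intracellular cAMP.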
A general note: In TR-FRET formats the signal depends on donor and acceptor labels being close together.

T1 sequence (Q12809 whole entry): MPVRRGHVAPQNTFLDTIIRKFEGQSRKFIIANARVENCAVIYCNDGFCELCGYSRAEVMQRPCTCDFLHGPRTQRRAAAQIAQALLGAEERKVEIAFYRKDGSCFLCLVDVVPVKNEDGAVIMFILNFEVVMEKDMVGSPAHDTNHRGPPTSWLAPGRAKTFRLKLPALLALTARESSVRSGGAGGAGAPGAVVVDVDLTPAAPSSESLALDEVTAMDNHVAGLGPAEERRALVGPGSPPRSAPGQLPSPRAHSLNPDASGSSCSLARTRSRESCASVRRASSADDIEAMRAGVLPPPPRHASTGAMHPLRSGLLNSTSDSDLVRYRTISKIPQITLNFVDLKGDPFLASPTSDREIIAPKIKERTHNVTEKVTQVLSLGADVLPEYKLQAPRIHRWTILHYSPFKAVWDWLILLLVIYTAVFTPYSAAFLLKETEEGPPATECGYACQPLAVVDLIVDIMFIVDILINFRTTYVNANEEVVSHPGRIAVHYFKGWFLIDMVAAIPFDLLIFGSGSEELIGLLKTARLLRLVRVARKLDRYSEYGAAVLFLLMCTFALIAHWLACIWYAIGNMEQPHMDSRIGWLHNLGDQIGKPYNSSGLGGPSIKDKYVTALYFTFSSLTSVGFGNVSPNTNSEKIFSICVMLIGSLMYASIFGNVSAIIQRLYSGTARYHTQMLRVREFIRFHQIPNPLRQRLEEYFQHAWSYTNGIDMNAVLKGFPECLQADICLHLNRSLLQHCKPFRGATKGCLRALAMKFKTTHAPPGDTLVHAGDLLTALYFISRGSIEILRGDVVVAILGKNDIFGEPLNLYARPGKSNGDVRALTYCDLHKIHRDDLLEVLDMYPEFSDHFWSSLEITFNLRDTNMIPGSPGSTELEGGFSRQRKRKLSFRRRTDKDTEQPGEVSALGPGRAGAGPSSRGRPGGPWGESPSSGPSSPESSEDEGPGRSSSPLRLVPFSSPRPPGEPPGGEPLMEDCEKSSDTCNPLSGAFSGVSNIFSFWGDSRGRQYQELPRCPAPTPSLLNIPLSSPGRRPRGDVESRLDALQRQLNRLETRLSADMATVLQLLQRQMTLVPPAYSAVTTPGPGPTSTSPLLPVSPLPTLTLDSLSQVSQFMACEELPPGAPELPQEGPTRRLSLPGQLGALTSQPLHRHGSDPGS

In the case of `O=C(O)c1ccc2nc(Cc3ccc(-c4cccc(OCc5ccc(Cl)cc5F)n4)c(F)c3)n(C[C@@H]3CCO3)c2c1` [Example 79, (S)-2-(4-(6-(4-chloro-2-fluorobenzyloxy)pyridin-2-yl)-3-fluorobenzyl)-1-(oxetan-2-ylmethyl)-1H-benzo[d]imidazole-6-carboxylic acid], the inhibition at 2.5 h, 10 µM at hERG was -2.04%. The EC50 at human GLP-1 receptor was less than 3.2 nM.
On to `O=C(O)c1ccc2nc(Cc3ccc(-c4ccc(F)c(OCc5ccc(Cl)cc5F)c4)cn3)n(CC3CCCO3)c2c1` (centres unmarked) [Example 102, 2-((5-(3-(4-chloro-2-fluorobenzyloxy)-4-fluorophenyl)pyridin-2-yl)methyl)-1-((tetrahydrofuran-2-yl)methyl)-1H-benzo[d]imidazole-6-carboxylic acid], for which the inhibition at 2.5 h, 10 µM at hERG was -31.9%. In addition, at human GLP-1 receptor, the EC50 was determined as 460 nM.
Take `O=C(O)c1ccc2nc(Cc3ccc(-c4cccc(OCc5ccc(Cl)cc5F)n4)cc3F)n(Cc3cccs3)c2c1` [Example 49, 2-(4-(6-(4-chloro-2-fluorobenzyloxy)pyridin-2-yl)-2-fluorobenzyl)-1-(thiophen-2-ylmethyl)-1H-benzo[d]imidazole-6-carboxylic acid]: at hERG, the inhibition at 2.5 h, 10 µM is 12.5%. For the same compound, on human GLP-1 receptor, the EC50 was found to be 14 nM.
Consider `O=C(O)c1ccc2nc(Cc3c(F)cc(-c4cccc(OCc5ccc(Cl)cc5F)n4)cc3F)n(C[C@@H]3CCO3)c2c1` [Example 84, (S)-2-(4-(6-(4-chloro-2-fluorobenzyloxy)pyridin-2-yl)-2,6-difluorobenzyl)-1-(oxetan-2-ylmethyl)-1H-benzo[d]imidazole-6-carboxylic acid], for which, at hERG, the inhibition at 2.5 h, 10 µM is -1.15%. Further, the EC50 at human GLP-1 receptor stood at 4 nM.
On the same counts, the results for `O=C(O)c1ccc2nc(Cc3ccc(-c4cccc(OCc5ccc(Cl)cc5F)c4)cc3F)n(CCF)c2c1` [Example 56, 2-((3′-(4-chloro-2-fluorobenzyloxy)-3-fluorobiphenyl-4-yl)methyl)-1-(2-fluoroethyl)-1H-benzo[d]imidazole-6-carboxylic acid] are 0.83% and 800 nM.
`O=C(O)c1ccc2nc(Cc3ccc(-c4cccc(OCc5ccc(Cl)cc5F)n4)c(F)c3)n(C[C@@H]3CCCO3)c2c1` [Example 60, (S)-2-(4-(6-((4-chloro-2-fluorobenzyl)oxy)pyridin-2-yl)-3-fluorobenzyl)-1-((tetrahydrofuran-2-yl)methyl)-1H-benzo[d]imidazole-6-carboxylic acid]: the inhibition at 2.5 h, 10 µM on hERG was -5.42%. Besides, the EC50 on human GLP-1 receptor is less than 3.2 nM.
Regarding `O=C(O)c1ccc2nc(Cc3ccc(-c4cccc(OCc5ccncc5)n4)c(F)c3)n(C[C@@H]3CCO3)c2c1` [Example 128, (S)-2-(3-fluoro-4-(6-(pyridin-4-ylmethoxy)pyridin-2-yl)benzyl)-1-(oxetan-2-ylmethyl)-1H-benzo[d]imidazole-6-carboxylic acid], at hERG, the inhibition at 2.5 h, 10 µM is -6.1%. On human GLP-1 receptor, the EC50 turned out to be 260 nM.
For `O=C(O)c1ccc2nc(Cn3ccc(-c4cccc(OCc5ccc(Cl)cc5F)n4)cc3=O)n(CC3CCO3)c2c1` (centres unmarked) [Example 127, 2-((6-((4-chloro-2-fluorobenzyl)oxy)-2′-oxo-[2,4′-bipyridin]-1′(2′H)-yl)methyl)-1-(oxetan-2-ylmethyl)-1H-benzo[d]imidazole-6-carboxylic acid] the same measures were 2.3% and 20 nM.
As to `O=C(O)c1ccc2nc(Cc3ccc(-c4cccc(OCc5ccc(Cl)cc5F)n4)cc3F)n(Cc3cnco3)c2c1` [Example 34, 2-(4-(6-(4-chloro-2-fluorobenzyloxy)pyridin-2-yl)-2-fluorobenzyl)-1-(oxazol-5-ylmethyl)-1H-benzo[d]imidazole-6-carboxylic acid], the inhibition at 2.5 h, 10 µM on hERG was -12.6%. Besides, the 50% effective concentration (EC50) at human GLP-1 receptor worked out at 9.2 nM.
Consider `O=C(O)c1ccc2nc(Cc3ccc(-c4cccc(OCc5ccc(Cl)cc5)n4)c(F)c3)n(C[C@@H]3CCO3)c2c1` [Example 123, (S)-2-(4-(6-((4-chlorobenzyl)oxy)pyridin-2-yl)-3-fluorobenzyl)-1-(oxetan-2-ylmethyl)-1H-benzo[d]imidazole-6-carboxylic acid], for which, at hERG, the inhibition at 2.5 h, 10 µM is -0.45%. The concentration giving a half-maximal response (EC50) at human GLP-1 receptor was 14 nM.

As a reminder, the inhibition is the change of the read-out against control, counted positive when it falls. For orientation: EC50 means the concentration that produces a half-maximal response.
